The NIST ThermoML archive (doi:10.1016/j.jct.2016.08.008)
± gives the expanded uncertainty stated by the source.

Assay: activity coefficient (dimensionless); of the first substance listed, at infinite dilution; xn = mol fraction of the nth substance listed
Details: 318.15 K; 101.33 kPa; Liquid; Chromatography; x1 = 0

SMILES | activity coefficient
c1ccsc1 [thiophene] + CCCCCCCCCCCCn1cc[n+](C)c1.O=S(=O)([N-]S(=O)(=O)C(F)(F)F)C(F)(F)F | 0.559 ± 0.04
Cc1ccccc1 [toluene] + CCCCCCCCCCCCn1cc[n+](C)c1.O=S(=O)([N-]S(=O)(=O)C(F)(F)F)C(F)(F)F | 0.699 ± 0.047
O [water] + CCCCCCCCCCCCn1cc[n+](C)c1.O=S(=O)([N-]S(=O)(=O)C(F)(F)F)C(F)(F)F | 4.49 ± 0.31

Same assay, conditions: 328.15 K; 101.33 kPa; Liquid; Chromatography; x1 = 0

SMILES | activity coefficient
C1CCCC1 [cyclopentane] + CCCCCCCCCCCCn1cc[n+](C)c1.O=S(=O)([N-]S(=O)(=O)C(F)(F)F)C(F)(F)F | 1.77 ± 0.12
CCCCCCCCCC [decane] + CCCCCCCCCCCCn1cc[n+](C)c1.O=S(=O)([N-]S(=O)(=O)C(F)(F)F)C(F)(F)F | 5.88 ± 0.4
CCOCC [diethyl ether] + CCCCCCCCCCCCn1cc[n+](C)c1.O=S(=O)([N-]S(=O)(=O)C(F)(F)F)C(F)(F)F | 1.03 ± 0.06
CC(C)OC(C)C [diisopropyl ether] + CCCCCCCCCCCCn1cc[n+](C)c1.O=S(=O)([N-]S(=O)(=O)C(F)(F)F)C(F)(F)F | 1.72 ± 0.12
CCCOCCC [dipropyl ether] + CCCCCCCCCCCCn1cc[n+](C)c1.O=S(=O)([N-]S(=O)(=O)C(F)(F)F)C(F)(F)F | 1.73 ± 0.12
CCO [ethanol] + CCCCCCCCCCCCn1cc[n+](C)c1.O=S(=O)([N-]S(=O)(=O)C(F)(F)F)C(F)(F)F | 1.3 ± 0.08
CCOC(C)=O [ethyl acetate] + CCCCCCCCCCCCn1cc[n+](C)c1.O=S(=O)([N-]S(=O)(=O)C(F)(F)F)C(F)(F)F | 0.567 ± 0.041
CCc1ccccc1 [ethylbenzene] + CCCCCCCCCCCCn1cc[n+](C)c1.O=S(=O)([N-]S(=O)(=O)C(F)(F)F)C(F)(F)F | 0.951 ± 0.06
CCCCCCC [heptane] + CCCCCCCCCCCCn1cc[n+](C)c1.O=S(=O)([N-]S(=O)(=O)C(F)(F)F)C(F)(F)F | 3.6 ± 0.25
C=CCCCC [hex-1-ene] + CCCCCCCCCCCCn1cc[n+](C)c1.O=S(=O)([N-]S(=O)(=O)C(F)(F)F)C(F)(F)F | 2.2 ± 0.15
CCCCCC [hexane] + CCCCCCCCCCCCn1cc[n+](C)c1.O=S(=O)([N-]S(=O)(=O)C(F)(F)F)C(F)(F)F | 3.02 ± 0.21
CC(C)c1ccccc1 [isopropylbenzene] + CCCCCCCCCCCCn1cc[n+](C)c1.O=S(=O)([N-]S(=O)(=O)C(F)(F)F)C(F)(F)F | 1.2 ± 0.08
CO [methanol] + CCCCCCCCCCCCn1cc[n+](C)c1.O=S(=O)([N-]S(=O)(=O)C(F)(F)F)C(F)(F)F | 1.22 ± 0.08
CCCC(=O)OC [methyl butanoate] + CCCCCCCCCCCCn1cc[n+](C)c1.O=S(=O)([N-]S(=O)(=O)C(F)(F)F)C(F)(F)F | 0.643 ± 0.044
COC(C)=O [methyl ethanoate] + CCCCCCCCCCCCn1cc[n+](C)c1.O=S(=O)([N-]S(=O)(=O)C(F)(F)F)C(F)(F)F | 0.525 ± 0.039
CCC(=O)OC [methyl propanoate] + CCCCCCCCCCCCn1cc[n+](C)c1.O=S(=O)([N-]S(=O)(=O)C(F)(F)F)C(F)(F)F | 0.557 ± 0.04
CC1CCCCC1 [methylcyclohexane] + CCCCCCCCCCCCn1cc[n+](C)c1.O=S(=O)([N-]S(=O)(=O)C(F)(F)F)C(F)(F)F | 2.46 ± 0.17

SMILES | activity coefficient
CCCCCCCCC [nonane] + CCCCCCCCCCCCn1cc[n+](C)c1.O=S(=O)([N-]S(=O)(=O)C(F)(F)F)C(F)(F)F | 4.97 ± 0.34
C=CCCCCCC [oct-1-ene] + CCCCCCCCCCCCn1cc[n+](C)c1.O=S(=O)([N-]S(=O)(=O)C(F)(F)F)C(F)(F)F | 3.1 ± 0.21
CCCCCCCC [octane] + CCCCCCCCCCCCn1cc[n+](C)c1.O=S(=O)([N-]S(=O)(=O)C(F)(F)F)C(F)(F)F | 4.22 ± 0.29
CCCCCO [pentan-1-ol] + CCCCCCCCCCCCn1cc[n+](C)c1.O=S(=O)([N-]S(=O)(=O)C(F)(F)F)C(F)(F)F | 1.46 ± 0.1
CCCC(C)=O [pentan-2-one] + CCCCCCCCCCCCn1cc[n+](C)c1.O=S(=O)([N-]S(=O)(=O)C(F)(F)F)C(F)(F)F | 0.445 ± 0.036
CCC(=O)CC [pentan-3-one] + CCCCCCCCCCCCn1cc[n+](C)c1.O=S(=O)([N-]S(=O)(=O)C(F)(F)F)C(F)(F)F | 0.444 ± 0.036
CCCCC [pentane] + CCCCCCCCCCCCn1cc[n+](C)c1.O=S(=O)([N-]S(=O)(=O)C(F)(F)F)C(F)(F)F | 2.6 ± 0.18
CCCO [propan-1-ol] + CCCCCCCCCCCCn1cc[n+](C)c1.O=S(=O)([N-]S(=O)(=O)C(F)(F)F)C(F)(F)F | 1.36 ± 0.09
CC(C)O [propan-2-ol] + CCCCCCCCCCCCn1cc[n+](C)c1.O=S(=O)([N-]S(=O)(=O)C(F)(F)F)C(F)(F)F | 1.26 ± 0.08
CCCc1ccccc1 [propylbenzene] + CCCCCCCCCCCCn1cc[n+](C)c1.O=S(=O)([N-]S(=O)(=O)C(F)(F)F)C(F)(F)F | 1.15 ± 0.07
c1ccncc1 [pyridine] + CCCCCCCCCCCCn1cc[n+](C)c1.O=S(=O)([N-]S(=O)(=O)C(F)(F)F)C(F)(F)F | 0.404 ± 0.034
C=Cc1ccccc1 [styrene] + CCCCCCCCCCCCn1cc[n+](C)c1.O=S(=O)([N-]S(=O)(=O)C(F)(F)F)C(F)(F)F | 0.666 ± 0.045
C1CCOC1 [tetrahydrofuran] + CCCCCCCCCCCCn1cc[n+](C)c1.O=S(=O)([N-]S(=O)(=O)C(F)(F)F)C(F)(F)F | 0.417 ± 0.035
c1ccsc1 [thiophene] + CCCCCCCCCCCCn1cc[n+](C)c1.O=S(=O)([N-]S(=O)(=O)C(F)(F)F)C(F)(F)F | 0.579 ± 0.041
Cc1ccccc1 [toluene] + CCCCCCCCCCCCn1cc[n+](C)c1.O=S(=O)([N-]S(=O)(=O)C(F)(F)F)C(F)(F)F | 0.732 ± 0.048
O [water] + CCCCCCCCCCCCn1cc[n+](C)c1.O=S(=O)([N-]S(=O)(=O)C(F)(F)F)C(F)(F)F | 4.02 ± 0.27

Same assay, conditions: 338.15 K; 101.33 kPa; Liquid; Chromatography; x1 = 0

SMILES | activity coefficient
C1CCCC1 [cyclopentane] + CCCCCCCCCCCCn1cc[n+](C)c1.O=S(=O)([N-]S(=O)(=O)C(F)(F)F)C(F)(F)F | 1.8 ± 0.12
CCCCCCCCCC [decane] + CCCCCCCCCCCCn1cc[n+](C)c1.O=S(=O)([N-]S(=O)(=O)C(F)(F)F)C(F)(F)F | 5.95 ± 0.41
CCOCC [diethyl ether] + CCCCCCCCCCCCn1cc[n+](C)c1.O=S(=O)([N-]S(=O)(=O)C(F)(F)F)C(F)(F)F | 1.07 ± 0.07
CC(C)OC(C)C [diisopropyl ether] + CCCCCCCCCCCCn1cc[n+](C)c1.O=S(=O)([N-]S(=O)(=O)C(F)(F)F)C(F)(F)F | 1.79 ± 0.12
CCCOCCC [dipropyl ether] + CCCCCCCCCCCCn1cc[n+](C)c1.O=S(=O)([N-]S(=O)(=O)C(F)(F)F)C(F)(F)F | 1.79 ± 0.12
CCO [ethanol] + CCCCCCCCCCCCn1cc[n+](C)c1.O=S(=O)([N-]S(=O)(=O)C(F)(F)F)C(F)(F)F | 1.23 ± 0.08
CCOC(C)=O [ethyl acetate] + CCCCCCCCCCCCn1cc[n+](C)c1.O=S(=O)([N-]S(=O)(=O)C(F)(F)F)C(F)(F)F | 0.593 ± 0.042
CCc1ccccc1 [ethylbenzene] + CCCCCCCCCCCCn1cc[n+](C)c1.O=S(=O)([N-]S(=O)(=O)C(F)(F)F)C(F)(F)F | 0.992 ± 0.062
CCCCCCC [heptane] + CCCCCCCCCCCCn1cc[n+](C)c1.O=S(=O)([N-]S(=O)(=O)C(F)(F)F)C(F)(F)F | 3.65 ± 0.25
C=CCCCC [hex-1-ene] + CCCCCCCCCCCCn1cc[n+](C)c1.O=S(=O)([N-]S(=O)(=O)C(F)(F)F)C(F)(F)F | 2.25 ± 0.15
CCCCCC [hexane] + CCCCCCCCCCCCn1cc[n+](C)c1.O=S(=O)([N-]S(=O)(=O)C(F)(F)F)C(F)(F)F | 3.09 ± 0.21
CC(C)c1ccccc1 [isopropylbenzene] + CCCCCCCCCCCCn1cc[n+](C)c1.O=S(=O)([N-]S(=O)(=O)C(F)(F)F)C(F)(F)F | 1.24 ± 0.08
CO [methanol] + CCCCCCCCCCCCn1cc[n+](C)c1.O=S(=O)([N-]S(=O)(=O)C(F)(F)F)C(F)(F)F | 1.15 ± 0.07
CCCC(=O)OC [methyl butanoate] + CCCCCCCCCCCCn1cc[n+](C)c1.O=S(=O)([N-]S(=O)(=O)C(F)(F)F)C(F)(F)F | 0.674 ± 0.046
COC(C)=O [methyl ethanoate] + CCCCCCCCCCCCn1cc[n+](C)c1.O=S(=O)([N-]S(=O)(=O)C(F)(F)F)C(F)(F)F | 0.546 ± 0.04
CCC(=O)OC [methyl propanoate] + CCCCCCCCCCCCn1cc[n+](C)c1.O=S(=O)([N-]S(=O)(=O)C(F)(F)F)C(F)(F)F | 0.583 ± 0.041
CC1CCCCC1 [methylcyclohexane] + CCCCCCCCCCCCn1cc[n+](C)c1.O=S(=O)([N-]S(=O)(=O)C(F)(F)F)C(F)(F)F | 2.49 ± 0.17
CCCCCCCCC [nonane] + CCCCCCCCCCCCn1cc[n+](C)c1.O=S(=O)([N-]S(=O)(=O)C(F)(F)F)C(F)(F)F | 5.03 ± 0.34
C=CCCCCCC [oct-1-ene] + CCCCCCCCCCCCn1cc[n+](C)c1.O=S(=O)([N-]S(=O)(=O)C(F)(F)F)C(F)(F)F | 3.17 ± 0.22
CCCCCCCC [octane] + CCCCCCCCCCCCn1cc[n+](C)c1.O=S(=O)([N-]S(=O)(=O)C(F)(F)F)C(F)(F)F | 4.27 ± 0.29
